Assays:
Format in all cases: cell-based, human
[1] = system: myeloma cell lines (8226, U266B1, MM1.R, H929); assay: Surface BCMA expression on myeloma cell lines incubated with GSI, flow cytometry
Protocol: (A) Cell surface BCMA was measured on four myeloma cell lines (8226, U266B1, MM1.R, H929) by flow cytometry with an anti-BCMA monoclonal antibody before, and 5 hours after (see diagrams), incubation of the myeloma cell lines with GSI RO4929097 in a range of concentrations from 0 μM (DMSO control) to 1.0 μM. (E) U266 myeloma cells were incubated for 1, 3, 5 and 24 hours in the presence of various concentrations of GSI RO429097 (0.01 μM, 0.1 μM and 1.0 μM) and evaluated for surface BCMA expression by flow cytometry. […] (F) Fold change of surface BCMA expression on cell lines (MM1R=triangle; U266=square; 8226=circle) cultured in 1 μM GSI over time. GSI was re-administered as a half media change every 2 days. Fold change in BCMA is defined as Treated (MFIBCMA-MFIiso)/Control (MFIBCMA-MFIiso). Data is representative of at least 2 independent experiments. To examine the effect of γ-secretase inhibition on BCMA levels on myeloma cells, γ-secretase inhibitor (GSI) RO4929097 was used. […] To examine the effect of GSI on surface BCMA expression kinetics, U266 myeloma cells were incubated for 1, 3, 5 and 24 hours in the presence of various concentrations of GSI RO429097 (0.01 μM, 0.1 μM and 1.0 μM) and evaluated for cell surface BCMA expression by flow cytometry. […] The upregulation persisted over 7 days of culture in 1.0 μM GSI (FIG. 3F). Next, the effect of removing GSI from MM cell culture was examined. […] Finally, the viability of the tested MM cell lines was not affected by addition of 1.0 μM RO429097 to culture (FIG. 3L).

[2] = system: myeloma cell lines (MM1.R, U266 and 8226); assay: Soluble BCMA (sBCMA) in culture supernatant of myeloma cell lines with GSI, ELISA
Protocol: (I) U266 myeloma cells were washed and plated in culture media in the presence of various concentrations of GSI RO429097 (0.01 μM, 0.1 μM and 1.0 μM). The media supernatant was harvested after 1, 3, 5 and 24 hours and assayed for soluble BCMA (sBCMA) by ELISA. […] To test the effect of GSI on BCMA shedding in MM, three different myeloma cell lines (MM1.R, U266 and 8226) were washed and plated in culture media for 24 hours in the presence of various concentrations of GSI RO429097 (0.01 μM, 0.1 μM and 1.0 μM). The media supernatant was harvested and assayed for sBCMA by ELISA. sBCMA levels decreased in the supernatant in the presence of a GSI in a dose dependent manner (FIGS. 3G & 3H). To examine the effect on soluble BCMA (sBCMA) levels over time, U266 cells were washed and plated in culture media for 1, 3, 5 and 24 hours in the presence of various concentrations of GSI RO429097 (0.01 μM, 0.1 μM and 1.0 μM). The media supernatant was harvested and assayed for soluble BCMA (sBCMA) by ELISA. […] Next, the effect of removing GSI from MM cell culture was examined. […] Finally, the viability of the tested MM cell lines was not affected by addition of 1.0 μM RO429097 to culture (FIG. 3L).

[3] = system: CD138+ primary myeloma cells; assay: Surface BCMA and other surface molecules on primary patient myeloma cells incubated with GSI, flow cytometry
Protocol: (N) Fold change in BCMA on primary myeloma cells (n=7) cultured with vary amounts of GSI for 4 h. Primary and cell lines were cultured at 0.5×10^6 cells/mL. Fold change in BCMA is defined as Treated (MFIBCMA-MFIiso)/Control (MFIBCMA-MFIiso). Data is representative of 3 independent experiments with T cells derived from different donors. […] (R) CD138+ primary myeloma cells were enriched from patient bone marrow samples, incubated for 3 hours in the presence of various concentrations of GSI RO429097 (0.01 μM to 10 μM) and evaluated for surface BCMA expression by flow cytometry. BCMA mean fluorescence intensity (MFI) on tumor cells is presented as fold increase over that observed on tumor cells incubated without RO429097. There is an observed dose dependent upregulation of BCMA. The effect of GSI on BCMA expression was then tested on primary myeloma samples from patients. CD138^+ myeloma cells were enriched from patient bone marrow samples, incubated for 3 hours in the presence of various concentrations of GSI RO429097 (0.01 μM to 10 μM) and evaluated for surface BCMA expression by flow cytometry (FIGS. 3M and 3R). BCMA mean fluorescence intensity (MFI) on tumor cells is presented as fold increase over tumor cells incubated without RO4929097.

[4] = U266, 1, 3, 5 and 24 hours, 0.01, 0.1 and 1.0 μM

Structure (SMILES): CC(C)(C(=O)NCC(F)(F)C(F)(F)F)C(=O)N[C@@H]1C(=O)Nc2ccccc2-c2ccccc21 [RO4929097]
- persistence of surface BCMA upregulation in culture ([1]; 1.0 μM GSI, GSI re-administered every 2 days): ≥ 7 days
- surface BCMA on myeloma cell lines ([1]; GSI 0.001 μM to 1.0 μM): rapidly upregulated
- time of peak increase in surface BCMA expression ([1]; U266, 0.01-1.0 μM GSI): 5 h
- cell surface BCMA expression on U266 cells [1, 4]: increased in a dose-dependent manner
- surface BCMA levels following removal of GSI ([1]; after removal of 1.0 μM GSI): decreased
- effect of GSI on surface BCMA shedding (reversibility) ([2]; 1.0 μM GSI removed or continued): reversible inhibitory effect
- sBCMA levels in supernatant ([2]; MM1.R, U266 and 8226, 24 hours, 0.01, 0.1 and 1.0 μM): decreased
- GSI concentration at which BCMA release into supernatant was decreased ([2]; U266, 1, 3, 5 and 24 hours): at least 0.01 μM
- soluble BCMA levels in supernatant over time [2, 4]: dose-dependent decrease
- supernatant sBCMA following removal of GSI ([2]; after removal of 1.0 μM GSI vs continued GSI): increased when the GSI was removed
- surface BCMA (MFI, fold increase) on primary myeloma cells ([3]; 3 hours, 0.01 μM to 10 μM): dose-dependent upregulation
- levels of other cell surface molecules (CS1, CD86, PD-L1, CD80, CD38) ([3]; primary myeloma cells, various GSI concentrations): no effect

Source: patent US11845803B2, “Combination therapies for treatment of BCMA-related cancers and autoimmune disorders” (Fred Hutchinson Cancer Center, priority 2017, dated 2023)
